Laboratory results taken from patent US20140342065A1 (priority 2012, published 2014).

Assays:
freshly cut Kiwi fruits = test: NaHS solution fumigation of freshly cut Kiwi fruits
Description: (§1) Aqueous NaHS solutions (0.25-3.5 mmol/L) could release H2S gas (10^−12˜10^−10 mol/L). H2S rapidly, reached to the highest levels within several minutes and maintained a constant concentration. […] The NaHS solution was renewed every 48 or 72 hours. The NaHS solution was placed in a sealed container separated by a partition board with pores on it. The fresh cut vegetables including Broccoli, Lettuce, Lotus Root, Yam, Pumpkin, Sweet Potato, Potato, etc, and the fresh cut fruits Apple, Pear, Kiwi Fruit, Tomato, Hami Melon, and Peach were placed above the board, while the NaHS solution was placed under the board. Therefore, the fresh cut vegetables and fruits were fumigated with H2S gas released from NaHS in the solution.
The control freshly cut Kiwi fruits that were treated with water (0.0 mmol/L NaHS) lost their color and their edibility completely on day 4, while the shelf life of freshly cut Kiwi fruits treated with 0.25 mmol/L-1.75 mmol/L NaHS solution was prolonged by 2-3 days. […] The control freshly cut Kiwi fruits treated with 0.0 mmol/L NaHS solution underwent rot process in 5 days, and the rot rate reached 100% in 7 days.

[1] = test system: freshly cut yams, sweet potatoes and potatoes; test: NaHS solution fumigation of freshly cut yams, sweet potatoes and potatoes
Description: as §1
The control freshly cut yams, sweet potatoes and potatoes that were treated with water (0.0 mmol/L NaHS) underwent browning at 10˜12 hours, while the browning time of freshly cut yams, sweet potatoes and potatoes treated with 0.25-1.75 mmol/L NaHS solution was postponed by about 15-20 hours.

[2] = test system: freshly cut chips of cantaloupe; test: NaHS solution fumigation of freshly cut chips of cantaloupe
Description: as §1
The control freshly cut chips of cantaloupe that were treated with water (0.0 mmol/L NaHS) lost their color and became brown, while the freshness of freshly cut chips of cantaloupe treated with 0.05 mmol/L-1.5 mmol/L NaHS solution was prolonged by 8-12 hours.

[3] = test system: fruits, vegetables, meat, chicken and salmon; yeast and/or bacteria; test: Food preservation with 500 mg NaHS in closed container at room temperature (FIG. 10)
Description: Representative samples of foods shown include fruits, vegetables, meat, chicken and salmon. […] Foods and fruits were stored in closed containers. The containers were made of aluminum with a plastic lid that snugly fitted onto the container rim. […] Control group (Control) of foods and fruits were stored within the containers. The experimental group (Exp) of foods and fruits were placed in the same type of containers and 500 mg of NaHS was placed in a glass cup which was placed in one corner of the container of the Exp group. The containers were not sealed. Using a H2S gas detector capable of detecting 1 to 500 ppm of H2S, no H2S was detected outside the containers. The amount of gas within the Exp containers varied from 5-40 ppm during the course of exposure. […] Experiments were carried out at room temperature for the durations shown. […] There is small change in color, consistency, and of the same food group and there is no evidence of growth of yeast in the NaHS treated group. Strawberry 80. […] The fruit also lost its consistency and is discolored. […] Raspberry 82. Growth of yeast is seen by day 4 and is pronounced on day 6 (arrow 83) in the control group. The fruit also lost its consistency and is discolored. […] Blackberry 84. Growth of yeast is seen by day 4 which is pronounced by day 6 (arrow 85) in the control group. The fruit also lost its consistency and is discolored. […] Banana 86. Growth of yeast is seen by day 8 (arrow 87) in the control group. The fruit also lost its consistency and is discolored. […] Sprout 88. Growth of yeast and bacteria is seen by day 4 (arrow 89) in the control group. Sprout also lost its consistency and is discolored. […] Leek 90. The vegetable is discolored in the control group by day 3. […] Avocado 91. Avocado was either homogenized (top two rows) or cut into small 1×1 cm pieces (bottom two rows) and stored in the containers. […] Mushroom 92. Mushroom is discolored in the control group. […] Cantaloupe 93. Growth of yeast is seen by day 3 and is severe on day 4 (arrows 94) in the control group. The fruit also lost its consistency and is discolored. […] Red meat 95 (top), Chicken 96 (middle) and Salmon 97 (Bottom). The control container developed a foul smell on day 3 which was pronounced on day 4. Larvae developed on day 3 in the control group and flies were found on day 4 in the control group. […] Agar plate cultures, 98. Samples from each fruit were diluted in phosphate buffered saline, pH 7.4. From each sample, 20 microliters was streaked on agar plates and plates were maintained either at room temperature or at 37° C. Samples from control group yielded bacteria or yeast only from control group. To directly test growth of these bacteria and yeast in presence of NaHS, samples of bacteria and yeast were streaked on agar plates and then stored without or with NaHS. 50 mg of NaHS was placed in an aluminum chamber and these were inserted on both sides of the Exp Petri dishes. Petri dishes were placed at room temperature or at 37° C. Colonies of bacteria and yeast were evident in the control group on day 1 and coalesced by day 3 as shown in the representative cultures 98. […] No growth was found for up to 2 months following initiation of cultures.

bacteria and yeast = test: Agar plate cultures stored with 50 mg NaHS (FIG. 10, 98); type: cell-based
Description: Representative samples of foods shown include fruits, vegetables, meat, chicken and salmon. […] Foods and fruits were stored in closed containers. The containers were made of aluminum with a plastic lid that snugly fitted onto the container rim. […] Control group (Control) of foods and fruits were stored within the containers. The experimental group (Exp) of foods and fruits were placed in the same type of containers and 500 mg of NaHS was placed in a glass cup which was placed in one corner of the container of the Exp group. The containers were not sealed. Using a H2S gas detector capable of detecting 1 to 500 ppm of H2S, no H2S was detected outside the containers. The amount of gas within the Exp containers varied from 5-40 ppm during the course of exposure. […] Experiments were carried out at room temperature for the durations shown. […] There is small change in color, consistency, and of the same food group and there is no evidence of growth of yeast in the NaHS treated group. Strawberry 80. […] The fruit also lost its consistency and is discolored. […] Raspberry 82. Growth of yeast is seen by day 4 and is pronounced on day 6 (arrow 83) in the control group. The fruit also lost its consistency and is discolored. […] Blackberry 84. Growth of yeast is seen by day 4 which is pronounced by day 6 (arrow 85) in the control group. The fruit also lost its consistency and is discolored. […] Banana 86. […]

freshly cut tomatoes = test: NaHS solution fumigation of freshly cut tomatoes at breaker stage
Description: as §1
The control freshly cut tomatoes that were treated with water (0.0 mmol/L NaHS) gradually turned red, and reached 100% maturation on day 5, while the maturation time of freshly cut tomatoes treated with 0.5 mmol/L-3.5 mmol/L NaHS solution was prolonged by 4-5 days.

[4] = Release of H2S gas from aqueous NaHS solutions; type: physicochemical; conditions: aqueous NaHS solutions 0.25-3.5 mmol/L
Description: as §1

bacteria or yeast = conditions: exposed one day (NaHS 50 mg, gas 40 ppm or saturated water 0.04% 1 ml), then sealed two months at room temperature
Source text: Control counterparts were also kept at room temperature within a closed environment. Then, the plates were removed from these environments, sealed and placed at room temperature for two months.

S [NaHS, sodium hydrosulfide]
shelf life prolonged by (freshly cut Kiwi fruits; 0.25 mmol/L-1.75 mmol/L NaHS, control lost edibility on day 4): 2 to 3 days
shelf life prolonged by (freshly cut Kiwi fruits; 1.5 mmol/L NaHS (best)): 2 days
day until which micro-organisms did not appear (freshly cut Kiwi fruits; 1.5 mmol/L NaHS, control rot rate 100% in 7 days): 10 days
browning time postponed by ([1]; 0.25-1.75 mmol/L NaHS, control browning at 10˜12 hours): 15 to 20 h
browning time postponed by ([1]; 1.0-1.5 mmol/L NaHS (most optimal)): 16 to 20 h
freshness prolonged by ([2]; 0.05 mmol/L-1.5 mmol/L NaHS): 8 to 12 h
freshness prolonged by ([2]; 0.9 mmol/L-1.0 mmol/L NaHS (best)): 12 h
food spoilage and growth of mold and/or bacteria ([3]; 500 mg NaHS, H2S 5-40 ppm in container, room temperature): prevents food spoilage and growth of mold and/or bacteria
discoloration ([3]; Avocado homogenized or cut pieces, day 3): maintained nearly the same color as that on day 1
yeast growth, loss of consistency, discoloration ([3]; Banana, day 8): These changes are not seen in the Exp group
yeast growth, loss of consistency, discoloration ([3]; Blackberry, day 6): These changes are not seen in the Exp group
yeast growth, loss of consistency, discoloration ([3]; Cantaloupe, day 4): These changes are not seen in the Exp group
discoloration ([3]; Leek, day 3): These changes are not seen in the Exp group
discoloration ([3]; Mushroom): These changes are less severe in the Exp group
yeast growth, loss of consistency, discoloration ([3]; Raspberry, day 6): These changes are not seen in the Exp group
discoloration, foul smell, larvae and flies ([3]; Red meat, Chicken and Salmon, day 4): Meat discolored in the Exp group on day 4 but there was no evidence of foul smell or flies
growth of yeast and bacteria, loss of consistency, discoloration ([3]; Sprout, day 4): These changes are not seen in the Exp group
yeast growth, loss of consistency, discoloration ([3]; Strawberry, day 4): These changes are not seen in the Exp group
time without growth following initiation of cultures (bacteria and yeast): up to 2 months
colonies of bacteria and yeast on agar plates (bacteria and yeast; room temperature or 37° C., day 1-3): no growth was evident
maturation time prolonged by (freshly cut tomatoes; 0.5 mmol/L-3.5 mmol/L NaHS, control 100% maturation on day 5): 4 to 5 days
senescence time prolonged by (freshly cut tomatoes; 1.5 mmol/L-2.0 mmol/L NaHS (best)): 5 days
H2S gas released [4]: 10^−12˜10^−10 mol/L
growth of bacteria and yeast on agar plates (bacteria or yeast): no growth was evident
